Columns and labels:
[1] = test system: control region for the fdnG operon; assay: DNase I footprinting of NarL DNA-binding; set-up: species or system E. coli
[2] = target: T1, NtrC^WT (Salmonella typhimurium, UniProt P41789, C30V/C364A); assay type: biochemical; conditions: for Stimulation of the ATPase activity of NtrC^WT: BeCl2 200 μM, AlCl3 200 μM, NaF 5 mM, VO4^3− 1 mM, compared with carbamoyl phosphate 10 mM
T1 construct: made in house
Experimental: NtrC proteins. […] All full-length NtrC proteins (dimer concentration) were maltose binding protein fusions to NtrC lacking its two natural cysteines (MBP-NtrC^C30V,C364A) or its derivatives.
Assays. […] Mol. Biol. 249, 700-713). Prior to addition of ATP, other components were incubated for 30 min at 25° C. together with the indicated small molecule or combination of small molecules (carbamoyl phosphate, 10 mM; BeCl2, 200 μM; AlCl3, 200 μM; NaF, 5 mM; VO4^3−, 1 mM). The response of the ATPase activity of NtrC to the concentration of NaF or BeCl2 was assessed essentially as above, except the reaction time was 10 min.

[3] = target: T2, phosphoserine phosphatase (PSP) (Methanocaldococcus jannaschii, UniProt Q58989); assay: Inhibition of hydrolytic activity of PSP; assay type: biochemical, Methanococcus jannaschii; conditions: for Inhibition of hydrolytic activity of PSP: analog generated in situ (NaF plus BeCl2 or AlCl3); for Effect of single component on PSP activity: NaF alone or BeCl2 alone
T2 construct: made in house

[4] = target: T3, NtrC^D86N,S160F (Salmonella typhimurium, UniProt P41789, C30V/C364A/D86N/S160F); assay type: biochemical; conditions: for Effect of single component on ATPase activity of NtrC^D86N,S160F: trace amounts of BeCl2 alone, high concentrations of NaF in absence of BeCl2
T3 construct: made in house

[5] = test system: mutant forms of NtrC in which D54 has been replaced by A or N; assay: ATPase activity of NtrC D54 mutants; assay type: biochemical, Salmonella typhimurium; conditions: data not shown
[6] = target: T1, NtrC^WT; assay: Formation of open complexes, single-cycle transcription assay; assay type: biochemical; conditions: ≦100 μM BeFx vs 10 mM carbamoyl phosphate
Experimental: Formation of open complexes was assessed in a single-cycle transcription assay on a supercoiled plasmid template pJES534 (1 nM) (Porter et al. (1993) Genes Dev. 7, 2258-2273; Flashner et al. (1995) J. Mol. Biol. 249, 700-713). NtrC was incubated with 100 μM BeCl2 plus 10 mM NaF or 10 mM carbamoyl phosphate, respectively, at 37° C. for 10 min prior to initiation of the reaction with ATP.
(§1) Transcriptional activation of NtrC was assessed as described in Flashner et al. (1995) J. Mol. Biol. 249, 700-713. DNA-binding of OmpR was assessed as described in Huang and Igo (1996) J. Mol. Biol. 262, 615-628. DNA-binding of NarL was assessed as described in Li et al. (1994) J. Mol. Biol. 241, 150-165 and Darwin et al. (1997) Mol. Microbiol 25, 583-595.

[7] = target: T4, NtrC^D86C,Fe (Salmonella typhimurium, UniProt P41789, C30V/C364A/D86C); assay: Fe-mediated cleavage of NtrC^D86C,Fe; assay type: biochemical; conditions: BeCl2 200 μM, NaF 10 mM; divalent cation required
T4 construct: made in house
Experimental: Fe-mediated cleavage of NtrC was assessed as follows: NtrC (5 to 10 μM) was incubated for 30 min at 25° C. with the indicated small molecule or combination of small molecules (carbamoyl phosphate, 10 mM; BeCl2, 200 μM; NaF, 10 mM) in cleavage buffer (10 mM MOPS, pH 8.0, 50 mM KCl, 8 mM MgCl2, 5% glycerol, 1 mM EDTA). Then cleavage was initiated by adding H2O2 and sodium ascorbate to final concentrations of 50 mM and samples were subjected to analysis by SDS-PAGE as described (Greiner etal. (1997) Bioconjugate Chem. 8, 44-48).
We have two direct lines of evidence that BeFx mimics effects of phosphorylation of NtrC structurally as well as functionally. […] Rearrangement at the dimer interface of P-NtrC is postulated to drive the formation of active oligomers. […] By contrast, the BeFx-dependent cleavage did require a divalent cation, and either Mg^2+ or Mn^2+ could serve (FIG. 3B). Thus, like phosphorylation (Parkinson and Kofoid (1992) Annu. Rev. Genet. 26, 71-112; Stock et al. (1995) in Two-component signal transduction, eds. Hoch and Silhavy (ASM, Washington, D.C.), pp. 25-51; Lukat et al. (1992) Proc. Natl. Acad. Sci. USA 89, 718-722; Feng et al. (1992) J. Bacteriol. 174, 6061-6070), the interaction between BeFx and D54 of NtrC requires a divalent cation. […]

[8] = target: FliM peptide (residues 1-16); assay: FliM peptide binding of CheY (tryptophan fluorescence quenching); set-up: species or system E. coli; conditions: CheY 10 μM; ± 2 mM BeCl2, 20 mM NaF, 20 mM MgCl2; read-out: Dissociation constant for binding to the FliM peptide
Experimental: FliM peptide binding of CheY was assessed as described in McEvoy et al. (1999) J. Mol. Biol. 289, 1423-1433. Fluorescence intensity of CheY (10 μM) at 340 nm was measured as a function of added FliM peptide in the absence or presence of 2 mM BeCl2, 20 mM NaF and 20 mM MgCl2.
There is no direct in vitro assay for the activity of P-CheY in reversing the direction of flagellar rotation. […] The strength of this binding, which was assessed by quenching of the intrinsic tryptophan fluorescence of CheY, was recently reported to be phosphorylation-dependent (McEvoy et al. (1999) J. Mol. Biol. 289, 1423-1433). […] By this criterion, BeFx.CheY is as active as P-CheY. Like BeFx.CheY, a phosphonate derivative of CheY^D57C appears to be a biochemical analogue of P-CheY, but it is difficult to prepare (Halkides et al. (1998) Biochemistry 37, 13674-13680). Such analogues are extremely useful because the acyl phosphate linkage of P-CheY is exceptionally labile (half life of seconds) (Parkinson and Kofoid (1992) Annu. Rev. Genet. 26, 71-112; Stock et al. (1995) in Two-component signal transduction, eds. Hoch and Silhavy (ASM, Washington, D.C.), pp. 25-51).

[9] = test system: ompF promoter-regulatory region; assay: DNase I footprinting of OmpR binding; set-up: species or system E. coli; conditions: compared with P-OmpR (EnvZ or acetyl phosphate); NaF 10 mM, BeCl2 100 μM
Experimental: Binding of BeFx.OmpR to the ompF promoter-regulatory region was assessed by DNase I footprinting as described in Huang and Igo (1996) J. Mol. Biol. 262, 615-628 and was compared to that of P-OmpR. The concentrations of OmpR were: 6.4 μM (lanes 1, 6, 11 and 16); 1.6 μM (lanes 2, 7, 12 and 17); 0.4 μM (lanes 3, 8, 13 and 18); 0.1 μM (lanes, 4, 9, 14 and 19); and 0 μM (lanes 5, 10, 15 and 20). For samples in lanes 6-10, OmpR was phosphorylated by MBP-EnvZ (0.3 μM) as described (Huang and Igo (1996) J. Mol. Biol. 262, 615-628). For samples in lanes 11-20, NaF (10 mM) was present and for those in lanes 16-20, BeCl2 (100 μM) was also present. Non-specific DNA-binding observed in the presence of BeCl2 and NaF in lanes 16 and 17 was not observed when OmpR was phosphorylated by EnvZ (lanes 6 and 7) unless much higher concentrations of OmpR were used (see FIG. 4).
as §1

BeFx.NarL: beryllofluoride complex of E. coli response regulator NarL
Activity relative to P-NarL ([1]; 200 μM BeCl2, 10 mM NaF and 5 mM MgCl2): less active
Binding to the control region for the fdnG operon ([1]; compared with P-NarL, data not shown): bound similarly

[O]=[V]([O-])([O-])[O-] [VO4^3−, orthovanadate]
Stimulation of the ATPase activity of NtrC^WT [2]: neither AlFx nor VO4^3− could substitute
Inhibition of hydrolytic activity of PSP [3]: observed to inhibit PSP activity

ADP.BeFx
Inhibition of the ATPase activity of NtrC^D86N,S160F ([4]; ADP complexes of phosphate analogs): neither ADP.BeFx nor ADP.AlFx nor ADP.VO4^3− appeared to inhibit

aluminofluoride [AlFx]
Stimulation of the ATPase activity of NtrC^WT [2]: neither AlFx nor VO4^3− could substitute
Inhibition of hydrolytic activity of PSP [3]: can substitute for BeF3^− to inhibit PSP activity
Stimulation of the ATPase activity of unphosphorylated NtrC^D86N,S160F [4]: but not Alfx

[Be+2].[Cl-].[Cl-] [BeCl2]
BeCl2 concentration at which inhibition of ATPase activity occurred ([2]; 5 mM NaF): ≥ 200 µM
BeCl2 concentration at which ATPase activity was detected (lowest tested) ([2]; 5 mM NaF, NtrC^WT 0.4 μM dimer): 5 µM
BeCl2 concentration giving highest ATPase activity ([2]; 5 mM NaF, NtrC^WT 0.4 μM dimer): 100 µM
Effect of single component on PSP activity [3]: Neither alone had such a profound effect
Effect of single component on ATPase activity of NtrC^D86N,S160F [4]: inhibited

beryllofluoride [BeFx]
Stimulation of ATPase activity of D54A / D54N NtrC [5]: failure of BeFx to stimulate
Activation of transcription by σ54-holoenzyme (open complexes) [6]: at least as great as that of the phosphorylated protein
Stimulation of the ATPase activity of NtrC^WT [2]: as effective as carbamoyl phosphate
Inhibition of PSP activity at different temperatures ([3]; 70° C. or room temperature, data not shown): similarly inhibited
Inhibition of hydrolytic activity of PSP [3]: significantly inhibited
Phosphorylation-dependent Fe-mediated cleavage [7]: yields an otherwise phosphorylation-dependent cleavage
Stimulation of the ATPase activity of unphosphorylated NtrC^D86N,S160F [4]: substantially stimulated

[F-].[Na+] [NaF]
NaF concentration at which inhibition of ATPase activity occurred ([2]; 50 μM BeCl2): ≥ 50 mM
NaF concentration below which no ATPase activity was observed ([2]; 50 μM BeCl2): 1 mM
Effect of single component on PSP activity [3]: Neither alone had such a profound effect
Effect of single component on ATPase activity of NtrC^D86N,S160F [4]: inhibited

B1: BeFx.CheY: beryllofluoride acyl phosphate analogue of E. coli response regulator CheY (protein, UniProt P0AE67 2-129, looked up)
Chemotaxis protein CheY: ADKELKFLVVDDFSTMRRIVRNLLKELGFNNVEEAEDGVDALNKLQAGGYGFVISDWNMPNMDGLELLKTIRADGAMSALPVLMVTAEAKKENIIAAAQAGASGYVVKPFTAATLEEKLNKIFEKLGM
modifications: beryllofluoride complex
Kd [8]: 26 µM

B2: CheY: E. coli CheY, central regulator of the chemotactic response, unmodified inactive form (protein, UniProt P0AE67 2-129, looked up)
Chemotaxis protein CheY: ADKELKFLVVDDFSTMRRIVRNLLKELGFNNVEEAEDGVDALNKLQAGGYGFVISDWNMPNMDGLELLKTIRADGAMSALPVLMVTAEAKKENIIAAAQAGASGYVVKPFTAATLEEKLNKIFEKLGM
Kd [8]: 500 µM

B3: BeFx.OmpR: beryllofluoride complex of E. coli response regulator OmpR (protein, UniProt P0AA16 1-239, looked up)
DNA-binding dual …: MQENYKILVVDDDMRLRALLERYLTEQGFQVRSVANAEQMDRLLTRESFHLMVLDLMLPGEDGLSICRRLRSQSNPMPIIMVTAKGEEVDRIVGLEIGADDYIPKPFNPRELLARIRAVLRRQANELPGAPSQEEAVIAFGKFKLNLGTREMFREDEPMPLTSGEFAVLKALVSHPREPLSRDKLMNLARGREYSAMERSIDVQISRLRRMVEEDPAHPRYIQTVWGLGYVFVPDGSKA
modifications: beryllofluoride complex
Binding to regulatory region upstream of the ompF promoter [9]: better than P-OmpR

Reference: patent publication US6495356B1, “Beryllofluoride analogues of acyl phosphate polypeptides” (priority 1999, dated 2002)
